Literature values, collected in patent publication US7910108B2, “Sheddase inhibitors combined with CD30-binding immunotherapeutics for the treatment of CD30 positive diseases” (Incyte Corporation, priority 2006, dated 2011).
Read-outs that look alike come from different tables or passages of the source.

Key:
CD30 [1] = conditions: in vitro; combined with anti-CD30 immunotoxins
CD30 [2] = conditions: in vivo, rodent; administered concomitantly with anti-CD30 immunotoxins

CO[C@H](C(=O)NO)[C@@H](CC(C)C)C(=O)N[C@H](C(=O)Nc1ccccn1)C(C)(C)C [BB-3644]
effectiveness of combination versus immunotoxin alone (CD30 [1]): substantially more effective | effectiveness of combination versus immunotoxin alone (CD30 [2]): substantially more effective
